The nature of data set [1]: HPLC analysis of donor hydrolysis in mock LysAlaAcm reactions without enzyme. In kind it is physicochemical. To be noted: mock reaction without AaT, AaT Ligation Buffer pH 8.0, 37° C., after 4 h. As for the experimental part:
The amino acid analog donor (4a-4z) was suspected to be hydrolytically unstable and was tested in mock LysAlaAcm reactions without enzyme present and then analyzed by HPLC. The mock LysAlaAcm reactions were performed as described in the LysAlaAcm Ligation Assay section; however, the AaT solution was replaced with water. Phe-A solutions were analyzed at 30 min, 1 h, and 4 h. Immediately following the reaction, the sample was diluted to 1,200 μL and injected onto the C18 HPLC column using Gradient 1. […] Additionally, 1 mM A and 1 mM Phe were injected on the HPLC to serve as standards to verify retention times. Note that the relative concentrations of 2′ and 3′ Phe-A would be different in an actual reaction where the 3′ Phe-A is preferentially consumed by AaT in the transfer reaction (Watanabe et al., 2007, Nature 449:867-871). The change in 2′:3′ ratio between 0 h and 30 min probably reflected the higher pH of the 30 min data (Taiji et al., 1983, Biochemistry 22:3220-3225).

The target in data set [2] is T1, E. coli aminoacyl tRNA transferase (AaT) (Escherichia coli, UniProt P0A8P1).
T1 construct: made in house; host or cells: E. coli BL21-Gold (DE3), plasmid pEG6, Ni-NTA purified
T1 sequence (P0A8P1 whole entry): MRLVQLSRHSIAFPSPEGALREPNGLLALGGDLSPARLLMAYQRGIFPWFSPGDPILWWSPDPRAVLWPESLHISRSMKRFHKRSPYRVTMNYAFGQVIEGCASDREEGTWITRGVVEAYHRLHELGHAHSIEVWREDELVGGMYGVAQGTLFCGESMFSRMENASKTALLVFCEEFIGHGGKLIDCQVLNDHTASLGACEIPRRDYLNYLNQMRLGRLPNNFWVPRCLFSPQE
Kind of data set: AaT-catalyzed α-casein N-terminal modification (Edman degradation, tryptic digest MALDI MS). In kind it is biochemical. To be noted: Phe donor, additional dose at 4 h, overnight. The procedure: HEPES pH 8.0, 1.50 mM KO, 10 mM MgCl2) and AaT (0.05 mg). The reaction mixture was incubated at 37° C. for 12 h, AaT was removed using Ni^2+ resin (Ni-NTA Superflow, Qiagen), and then buffer exchanged four times into phosphate buffered saline (PBS, 12 mM NaH2PO4, 50 mM NaCl, 4.7 mM KCl, pH 8.0) by Spectra/Por 1 dialysis tubing (Spectrum Laboratories; Rancho Dominguez, Calif.). Azf-modified α-casein was used directly after buffer exchange into PBS. Aliquots (1 nmol) of α-casein were diluted into PBS (22 μL) containing either fluorescein-alkyne (FlAlk, 91 μM) or propargylamine (Alk, 227 μM) for copper-catalyzed azide-alkyne cycloaddition (CuAAC). […] Reactions were boiled with gel loading dye LDS (Pierce; Rockford, Ill.) for 10 min at 95° C. and analyzed by SDS-PAGE. Fluorescence images were obtained with a Geldoc (BioRAD; Hercules, Calif.) using an excitation wavelength of 302 nm for detection of fluorescein. α-Casein was also directly visualized by Coomassie Brilliant Blue staining.
α-Casein-Azf (33 or α-casein (33 μg) was digested with sequencing grade modified Trypsin (0.6 μg) in 27 μL of 25 mM ammonium bicarbonate pH 7.5 (freshly prepared). Digestions were carried out at 37° C. for 14 h. Trypsin digest aliquots (1 μL) were combined with α-cyano-4-hydroxycinnamic acid (1 μL of a saturated solution in 1:1 H2O/CH3CN with 1% TFA) and analyzed by MALDI MS. […]

The target in data set [3] is T2, E. coli aminoacyl transferase (AaT) (Escherichia coli, UniProt P0A8P1).
T2 sequence (P0A8P1 whole entry): as above
Protocol: The LysAlaAcm ligation assay was used to analyze the kinetics of AaT with substrate 4a. The ligation assay was modified for ease of analysis as follows: The total reaction volume was scaled up to 590 μL and all reagents were maintained at the same concentrations as mentioned above, Five concentrations of 4a were monitored for a total reaction time of 30 min, with concentrations ranging from 0.05 to 1 mM.
Each 30 min kinetic experiment was done in triplicate with a total of fourteen 40 μL aliquots for all substrate concentrations.
Therefore, the reaction was characterized in terms of the Michaelis-Menten kinetic scheme in Equation 2.
To determine initial velocities, the primary kinetic data is fit to the hyperbolic Equation 3, which, though phenomenological, produces a high quality fit (R>0.99 for all 5 data sets). Data from the first two minutes were fit to a linear expression (Equation 4). A non-zero intercept is employed for improved quality of fit; this can be justified in terms of a rapid burst phase not captured in the 1 min resolution of this assay.
The initial velocities were then plotted as a function of Phe-A donor concentration and fit to Equation 5 to obtain kcat and KM values, where KM=(k−1+kcat)/k1 as depicted in FIG. 3B.
To characterize the enzymatic activity of AaT toward the present acyl adenosyl substrates, an HPLC assay was used to determine initial reaction rates to be fit to a standard Michaelis-Menten kinetic model.
Data set [4] addresses T2, E. coli aminoacyl transferase (AaT). The data set is described as follows: LysAlaAcm ligation assay: AaT-catalyzed transfer from aminoacyl adenosine donor to LysAlaAcm, HPLC at 325 nm. In kind it is biochemical. Details: made in house; host or cells: E. coli BL21-Gold (DE3), plasmid pEG6, Ni-NTA purified. The following applies: for Ligated Product Yield (%): 4 h. The procedure: Each ligation reaction, 125 μL total volume, contained the following reagents: aminoacyl adenosine donor (1 mM), recombinant His10-tagged E. coli aminoacyl transferase (2.26 μM), and LysAlaAcm (100 μM) in the AaT Ligation Buffer (50 mM HEPES pH 8.0, 150 mm KCl, 10 mM MgCl2). The reaction mixtures were incubated at 37° C. for four hours and quenched with 1% acetic acid. The proteins were extracted from the reactions via acetone precipitation. The reactions were precipitated using 4× reaction volume of acetone and cooled at −20° C. for 1 h. Next, the reactions were centrifuged at 13,200 rpm at 4° C. for 20 min to separate the reaction from precipitated protein. The supernatant was transferred to fresh 1.5 mL centrifuge tubes and allowed for acetone evaporation overnight at room temperature. After acetone evaporation, the supernatant was dried in a Speedvac (Savant, Thermo Scientific, Fisher Inc.) for 30 min to remove residual acetone. The resulting reaction volume was dissolved up to 1.2 mL using Milli-Q water and analyzed by HPLC (gradient below) to determine ligation yield by integration of separated peak intensities monitored at 325 nm. Collected HPLC fractions were characterized through MALDI MS analysis. […] Reactions using Phe-pdCpA as donor were carried out in an identical fashion (Ellman, et al., 1991, Methods Enzymol. 202:301-336).
All HPLC analyses of LysAlaAcm ligations were monitored on an Agilent HPLC using a Waters C18 column (Milford, Mass.).
All HPLC analyses of LysAlaAcm ligations were monitored as described elsewhere herein (Gradient 1).
The extent of transfer was evaluated by HPLC analysis of reactions with adenosyl donor, AaT or BpT, and an aminocoumarin-labeled reporter peptide (for AaT, LysAlaAcm was used as previously described by Tirrell and co-workers; for BpT, AspAlaAcm was used in an analogous fashion) (Connor et al., 2008, ChemBioChem 9:366-369). Monitoring LysAlaAcm or AspAlaAcm acylation in crude reaction mixtures using absorbance at 325 nm conveniently eliminates background due to other proteins and nucleic acids, although some non-natural amino acids such as naphthylalanine (Nap) and methoxycoumarinylalanine (Mcm) also absorb in this range.
To evaluate substrate scope, reactions were analyzed after 4 h, when transfer should be complete for the fully enzymatic reaction with Phe tRNA synthetase (Connor et al., 2008, ChemBioChem 9:366-369).

For data set [5] the target is unchanged. Kind of data set: A/AMP/ATP/pdCpA inhibition studies of ligation with Phe donor 4a. In kind it is biochemical. The arrangement: made in house; host or cells: E. coli BL21-Gold (DE3), plasmid pEG6, Ni-NTA purified. As for the experimental part:
Each ligation reaction was performed as described elsewhere herein.
To better understand limitations on the yield from AaT reactions, the possibilities of inhibition by hydrolyzed substrate or aminoacylated product were assessed. Since the acyl adenosine donor substrate is not regenerated during the reaction (unlike the aaRS/tRNA/AaT reaction), it was hypothesized that the adenosine byproduct might inhibit further acylation by binding to AaT. To investigate this possibility, adenosine was added to the reaction at varying concentrations and monitored the reaction timecourse by fluorescence spectroscopy and by HPLC.

Data set [6] has the same target. The data set is described as follows: Real time fluorometric monitoring of Nap transfer from 4d to LysAlaAcm. In kind it is biochemical. The following applies: up to 1 mM exogenous adenosine, real time fluorescence. The arrangement: made in house; host or cells: E. coli BL21-Gold (DE3), plasmid pEG6, Ni-NTA purified. As for the experimental part: Real time fluorescent monitoring of Nap addition to LysAlaAcm was carried out using reaction solutions prepared on the 500 μL scale in stirred quartz cuvettes with 1.00 cm path lengths. Reagent concentrations were as described elsewhere herein, except that donor 4d was withheld until the cuvette was placed in the fluorometer and temperature equilibrated. Reactions were then initiated by addition of 20 μL of 25 mM Nap-A (4d) stock or water (for negative controls). Fluorescence emission at 390 nm was monitored after excitation at 325 nm. Prior calibration had shown that NapLysAlaAcm (5d) concentrations could be estimated from fluorescence intensity readings (F5d) using the equation [5d]=(1−(F5d/FControl))1.39[LysAlaAcm], where fControl is the fluorescence reading of the reaction with water added instead of 4d. […]
In order to monitor conversion of LysAlaAcm to NapLysAlaAcm (5d) in real time, a fluorometric assay was designed based on intramolecular quenching of aminocoumarin fluorescence by the naphthyl ring. Equimolar solutions of LysAlaAcm and NapLysAlaAcm, as well as mixtures of the two solutions, were prepared and their fluorescence was compared as depicted in FIG. 18A. […]
The present experiment was also achieved to monitor product formation in real time based on partial quenching of coumarin fluorescence upon addition of Nap to the LysAlaAcm peptide to form 5d. […]

Where [7] appears, read: 100 μM LysAlaAcm, 0.05 to 1 mM donor.

“And” between values parts separate entries of the source, which are not always exact repeats. Identical values can stand only once. “Also recorded” adds a separate entry of the source. Like-named read-outs stand apart in the source and are kept apart here.

By Km is commonly meant the concentration of substrate that gives half-maximal velocity. What is called Ki is the dissociation constant of the complex between target and ligand, obtained from inhibition or displacement.

For `Nc1ncnc2c1ncn2[C@@H]1O[C@H](CO)[C@@H](O)[C@H]1OC(=O)[C@@H](N)Cc1ccccc1` [4a, (S)-(2R,3R,4R,5R)-2-(6-Amino-9H-purin-9-yl)-4-hydroxy-5-(hydroxymethyl)tetrahydrofuran-3-2-amino-3-phenylpropanoate], in data set [1], the Donor hydrolysis entry was “completely hydrolyzed”. The “Modification of α-casein N-terminus, Edman degradation” value in data set [2] was “quantitative addition of Phe”. For the same compound, the Michaelis constant (Km) in data set [3] (setting [7]) and in data set [3] (restated in μM) was 124 µM in each case. For the same compound, the kcat in data set [3] (setting [7]) was 1.68±0.09×10^−1 s^−1. Besides, the “Transfer to LysAlaAcm by AaT (in words)” value in data set [4] (reactions analyzed after 4 h) is on record as “transferred efficiently”. Further, in data set [4] (second addition of 1 mM 4a), the “Conversion of LysAlaAcm after a second addition of donor” value is given as “completion”. Further, the “Ligated Product Yield (%)” value was 92% and 92.7 ± 5.2% in data set [4] (single addition of 1 mM donor, 100 μM LysAlaAcm, 2.26 μM AaT, 37° C., no additive); 90.4 ± 0.9% in data set [4] (single addition of donor, additive 1 mM pdCpA).

Take `Nc1ncnc2c1ncn2[C@@H]1O[C@H](CO)[C@@H](O)[C@H]1O` [adenosine]: in data set [5] (5 mM added), the “Inhibition of addition from the Phe donor 4a” value is on record as “not inhibited”. The compound also displayed a Ki in data set [5] (Phe donor 4a transfer reaction) of more than 5 mM. The “Inhibition of Nap transfer to LysAlaAcm from 4d” value in data set [6] is listed as “did not significantly inhibit; also recorded: No significant inhibition”.

Source of the values: patent US9376700B2, “Methods of modifying N-termini of a peptide or protein using transferases” (The Trustees of the University of Pennsylvania, priority 2012, dated 2016).
